# Counter-ions that a name gives are not always drawn.
# Target: LC3B (Homo sapiens, UniProt Q9GZQ8)
# Experiment: Fluorescence Polarization (FP) Assay: displacement of FITC-labeled peptide from GST-LC3B
# Format: binding
# Details: Fluorescence Polarization assay; GST-LC3B 180 nM, FITC-labeled peptide 18 nM, 25° C.; read-out: IC50
# Description: The compounds of the present invention for regulating the autophagy-related protein LC3B were tested by Fluorescence Polarization (FP) Assay.
# Fluorescence Polarization (FP) Assay Test
row,SMILES,IC50
1,"O=C1Oc2ccccc2C(=O)C1=CNCCN1CCN(CCO)CC1 [Compound 155, 3-(((2-(4-(2-hydroxyethyl)piperazin-1-yl)ethyl)amino)methylene) chromanone-2,4-dione]",15 to 100 µM
2,"O=C1Oc2ccc(-c3ccccc3)cc2C(=O)C1=CNCCN1CCN(CCO)CC1 [Compound 156, 3-(((2-(4-(2-hydroxyethyl)piperazin-1-yl)ethyl)amino)methylene)-6-phenylchromane-2,4-dione]",3 to 15 µM
3,"CNCCNC=C1C(=O)CC(c2ccccc2)CC1=O (centres unmarked) [Compound 164, 2-(((2-(methylamino)ethyl)amino)methylene)-5-phenylcyclohexane-1,3-dione hydrochloride]",3 to 15 µM
4,"CCOC(=O)C(CS)NC=C1C(=O)CC(c2ccccc2)CC1=O (centres unmarked) [Compound 169, ethyl ((2,6-dioxo-4-phenylcyclo-hexylidene)methyl) cysteinate]",3 to 15 µM
5,"CCN1CCC[C@H]1CNC=C1C(=O)CC(c2ccccc2)CC1=O (stereo partly drawn) [Compound 171, 2-(((((S)-1-ethylpyrrolidin-2-yl)methyl)amino)methylene)-5-phenylcyclohexane-1,3-dione]",3 to 15 µM
6,"NCCNC=C1C(=O)CC(c2ccccc2)CC1=O (centres unmarked) [Compound 175, 2-(((2-aminoethyl)amino)methylene)-5-phenylcyclo-hexane-1,3-dione hydrochloride]",3 to 15 µM
7,"NCCOC(=O)[C@H](Cc1ccccc1)NC=C1C(=O)CC(c2ccccc2)CC1=O (stereo partly drawn) [Compound 178, 2-aminoethyl ((2,6-dioxo-4-phenylcyclo-hexylidene)methyl)-L-phenylalaninate hydrochloride]",15 to 100 µM
8,"CONC=C1C(=O)CC(c2ccccc2)CC1=O (centres unmarked) [Compound 180, 2-((methoxyamino)methylene)-5-phenylcyclo-hexane-1,3-dione]",100 to 1000 µM
9,"CC1(C)CC(=O)C(=CNCCN2CCN(CCO)CC2)C(=O)C1 [Compound 182, 2-(((2-(4-(2-hydroxyethyl)piperazin-1-yl)ethyl)amino)methylene)-5,5-dimethyl-cyclohexane-1,3-dione]",100 to 1000 µM
10,"O=C1/C(=C/NCCN2CCN(CCO)CC2)Oc2ccccc21 [Compound 183, 2-(((2-(4-(2-hydroxyethyl)piperazin-1-yl)ethyl)amino)methylene) benzofuran-3(2H)-one]",100 to 1000 µM
11,"Cc1cccc2[nH]cc(C3CC(=O)C(=CNCCN4CCN(CCO)CC4)C(=O)C3)c12 (centres unmarked) [Compound 184, 2-(((2-(4-(2-hydroxyethyl)piperazin-1-yl)ethyl)amino)methylene)-5-(4-methyl-1H-indol-3-yl)cyclohexane-1,3-dione]",100 to 1000 µM
12,"O=C1CC(c2ccccc2-c2ccccc2)CC(=O)C1=CNCCN1CCN(CCO)CC1 (centres unmarked) [Compound 187, 5-([1,1′-biphenyl]-2-yl)-2-(((2-(4-(2-hydroxyethyl)piperazin-1-yl)ethyl)amino)methylene) cyclohexane-1,3-dione]",< 3 µM
13,"O=C1CC(c2ccccc2-c2ccncc2)CC(=O)C1=CNCCN1CCN(CCO)CC1 (centres unmarked) [Compound 188, 2-(((2-(4-(2-hydroxyethyl)piperazin-1-yl)ethyl)amino)methylene)-5-(2-(pyridin-4-yl)phenyl) cyclohexane-1,3-dione]",3 to 15 µM

# Continued, values first:
row,IC50,SMILES
1,< 3 µM,"O=C1CC(c2ccccc2)CC(=O)C1=CNc1nc(C(=O)O)cs1 (centres unmarked) [Compound 148, 2-(((2,6-dioxo-4-phenylcyclo-hexylidene)methyl)amino) thiazole-4-carboxylic acid]"
2,< 3 µM,"O=C1CC(c2ccccc2)CC(=O)C1=CNc1ncc([N+](=O)[O-])s1 (centres unmarked) [Compound 150, 2-(((5-nitrothiazol-2-yl)amino)methylene)-5-phenylcyclohexane-1,3-dione]"
3,100 to 1000 µM,"CC(O)C(NC=C1C(=O)CC(c2ccccc2)CC1=O)C(=O)O (centres unmarked) [Compound 158, 2-(((2,6-dioxo-4-phenylcyclo-hexylidene)methyl)amino)-3-hydroxybutanoic acid]"
4,15 to 100 µM,"CC(NC=C1C(=O)CC(c2ccccc2)CC1=O)c1ccccn1 (centres unmarked) [Compound 160, 5-phenyl-2-(((1-(pyridin-2-yl)ethyl)amino)methylene) cyclohexane-1,3-dione]"
5,100 to 1000 µM,"O=C1CC(c2ccccc2)CC(=O)C1=CNCC1CCNCC1 (centres unmarked) [Compound 161, 5-phenyl-2-(((piperidin-4-ylmethyl)amino)methylene) cyclohexane-1,3-dione hydrochloride]"
6,15 to 100 µM,"CCOC(=O)[C@H](C)NC=C1C(=O)CC(c2ccccc2)CC1=O (stereo partly drawn) [Compound 162, ethyl ((2,6-dioxo-4-phenylcyclo-hexylidene)methyl)-L-alaninate]"
7,100 to 1000 µM,"O=C1CC(c2ccccc2)CC(=O)C1=CNC[C@@H](O)[C@H](O)[C@@H](O)[C@@H](O)CO (stereo partly drawn) [Compound 163, 2-((((2R,3S,4S,5S)-2,3,4,5,6-pentahydroxyhexyl)amino)methylene)-5-phenylcyclohexane-1,3-dione]"
8,3 to 15 µM,"CN(C)CCCCNC=C1C(=O)CC(c2ccccc2)CC1=O (centres unmarked) [Compound 170, 2-(((4-(dimethylamino)butyl)amino)methylene)-5-phenylcyclohexane-1,3-dione]"
9,15 to 100 µM,"NC1CC(NC=C2C(=O)CC(c3ccccc3)CC2=O)C1 (centres unmarked) [Compound 173, 2-(((3-aminocyclobutyl)amino)methylene)-5-phenylcyclohexane-1,3-dione hydrochloride]"
10,100 to 1000 µM,"CC(=O)NCCNC=C1C(=O)CC(c2ccccc2)CC1=O (centres unmarked) [Compound 176, N-(2-(((2,6-dioxo-4-phenylcyclo-hexylidene)methyl)amino)ethyl) acetamide]"
11,< 3 µM,"O=C1CC(c2cccc3[nH]cc(C4CC4)c23)CC(=O)C1=CNCCN1CCN(CCO)CC1 (centres unmarked) [Compound 185, 5-(3-cyclopropyl-1H-indol-4-yl)-2-(((2-(4-(2-hydroxyethyl)piperazin-1-yl)ethyl)amino)methylene) cyclohexane-1,3-dione]"
12,3 to 15 µM,"COc1ccc2[nH]cc(C3CC(=O)C(=CNCCN4CCN(CCO)CC4)C(=O)C3)c2c1 (centres unmarked) [Compound 186, 2-(((2-(4-(2-hydroxyethyl)piperazin-1-yl)ethyl)amino)methylene)-5-(5-methoxy-1H-indol-3-yl)cyclohexane-1,3-dione]"
13,< 3 µM,"O=C1CC(c2ccccc2C2CC2)CC(=O)C1=CNCCN1CCN(CCO)CC1 (centres unmarked) [Compound 189, 5-(2-cyclopropylphenyl)-2-(((2-(4-(2-hydroxyethyl)piperazin-1-yl)ethyl)amino)methylene) cyclohexane-1,3-dione]"
14,15 to 100 µM,"O=C1CC(c2ccccc2)C(C(=O)N2CCOCC2)C(=O)C1=CNCCN1CCN(CCO)CC1 (centres unmarked) [Compound 190, 2-(((2-(4-(2-hydroxyethyl)piperazin-1-yl)ethyl)amino)methylene)-4-(morpholine-4-carbonyl)-5-phenylcyclo-hexane-1,3-dione]"
15,< 3 µM,"CCOC(=O)C1C(=O)/C(=C\NCCN2CCN(CCO)CC2)C(=O)CC1c1ccccc1Br (centres unmarked) [Compound 191, ethyl-6-(2-bromophenyl)-3-(((2-(4-(2-hydroxyethyl)piperazin-1-yl)ethyl)amino)methylene)-2,4-dioxocyclohexane-1-carboxylate]"
16,3 to 15 µM,"O=C1Nc2ccc(Cl)cc2C(=O)/C1=C/NCCN1CCN(CCO)CC1 [Compound 192, 6-chloro-3-(((2-(4-(2-hydroxyethyl)piperazin-1-yl)ethyl)amino)methylene) quinoline-2,4 (1H,3H)-dione]"

# Reference: patent US11319303B2 (WIGEN BIOMEDICINE TECHNOLOGY (SHANGHAI) CO., LTD., priority 2017, dated 2022)
